US11352396B2, “Antimicrobial peptides and methods of using same” (Zoetis Services LLC, priority 2017, dated 2022)

How the values were obtained:
[1] = tested on: E. coli ATCC 25922; type: cell-based; details: E. coli 25922, Table 6
Procedure, shortened: (§1)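 Broth microdilution followed CLSI VET01-S2, with peptides serially diluted to in-assay concentrations of 50 μM to 0.05 μM. A 0.5 McFarland inoculum diluted 1:250 in Mueller-Hinton Broth was incubated with peptide for 18-20 hours. MIC was read visually as the first well without visible growth.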

[2] = tested on: cRBC; type: cell-based, canine
Procedure, shortened: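 Washed, plasma-free red cells were incubated with peptide titrated from 50 µM to 0.05 µM for 1 h at 37 °C. Hemolysis was read as OD at 405 nm, scaled between phosphate buffer alone (0%) and 1% Triton X-100 (100%).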

[3] = tested on: MSSP (Methicillin-Susceptible Staphylococcus pseudintermedius); assay: MIC against selected strains of MSSP; type: cell-based; design: MIC MSSP 49051 / MIC MSSP 81923 / MIC MSSP 84250 / Effect on MSSP 86000 / Effect on MSSP 72036 / Effect on MSSP 78032: unit not given beside the values; Effect on MSSP 71990 / Effect on MSSP 86001 / Effect on MSSP 72191 / Effect on MSSP 76986 / Effect on MSSP 77378 / Effect on MSSP 81923 / Effect on MSSP 84250 / Effect on MSSP 84658: unit: µM; details: for SP 49051: S. pseudintermedius 49051, Table 6; for Effect on MSSP 71990: strain 71990, Table 5; for Effect on MSSP 72036: strain 72036, Table 5; for Effect on MSSP 72191: strain 72191, Table 5; for Effect on MSSP 76986: strain 76986, Table 5; for Effect on MSSP 77378: strain 77378, Table 5; for Effect on MSSP 78032: strain 78032, Table 5; for Effect on MSSP 81923: strain 81923, Table 5; for Effect on MSSP 84250: strain 84250, Table 5; for Effect on MSSP 84658: strain 84658, Table 5; for Effect on MSSP 86000: strain 86000, Table 5; for Effect on MSSP 86001: strain 86001, Table 5
Procedure, shortened: (§2)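 Broth microdilution MIC following CLSI VET01-S2: peptides titrated 50 μM to 0.05 μM in assay, inoculum a 0.5 McFarland suspension diluted 1:250 in Mueller-Hinton broth. Incubated overnight (18–20 h); MIC taken visually as lowest concentration without visible growth.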

[4] = tested on: MRSP (Methicillin-Resistant Staphylococcus pseudintermedius); assay: MIC against selected strains of MRSP; type: cell-based; design: key to MIC MRSP 72192 / MIC MRSP 76923 / MR 71994 / Mr 88493 / MR 72035 / MR 72192 / MR 76923 / MR 79882 / MR 80279 / MR 81926 / MR 86002 / MR 87665: MIC in μM (visual, first well with no growth); details: for MR 71994: MRSP strain 71994, Table 6; for MR 72035: MRSP strain 72035, Table 6; for MR 72192: MRSP strain 72192, Table 6; for MR 76923: MRSP strain 76923, Table 6; for MR 79882: MRSP strain 79882, Table 6; for MR 80279: MRSP strain 80279, Table 6; for MR 81926: MRSP strain 81926, Table 6; for MR 86002: MRSP strain 86002, Table 6; for MR 87665: MRSP strain 87665, Table 6; for Mr 88493: MRSP strain 88493, Table 6
Procedure, shortened: as §2

[5] = tested on: S. aureus ATCC 29213; type: cell-based; design: key to SA 29213: MIC in μM (lowest conc. with no visible growth); details: S. aureus 29213, Table 6
Procedure, shortened: as §1

[6] = tested on: Canine-derived epithelial keratinocyte (CPEK) cells; type: cell-based
Procedure, shortened: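 CPEK cells were dosed with peptides at 50 μM to 0.05 μM and incubated overnight at 37 °C, 5% CO2. Viability was read by CellTiter-Glo luminescence. Percent effect was normalised to 0.1% Triton X-100 (high) and phosphate buffer alone (zero).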

Substance	EC 25922 [1] [µM]	cRBC (50 μM) [2]	SP 49051 [3]	Effect on MSSP 71990 [3]	Effect on MSSP 72036 [3]	Effect on MSSP 72191 [3]	Effect on MSSP 76986 [3]	Effect on MSSP 77378 [3]	Effect on MSSP 78032 [3]	Effect on MSSP 81923 [3]	Effect on MSSP 84250 [3]	Effect on MSSP 84658 [3]	Effect on MSSP 86000 [3]	Effect on MSSP 86001 [3]	MR 71994 [4]	MR 72035 [4]	MR 72192 [4]	MR 76923 [4]	MR 79882 [4]	MR 80279 [4]	other results
104 (KWCFRVCYFGICYRRCRD; Artificial Antimicrobial peptide) [compound 104]	3.1	100.6	1.6	1.6	3.1	1.6	1.6	1.6	1.6	3.1	3.1	1.6	3.1	1.6	3.1	1.6	1.6	1.6	1.6	1.6	MR 81926 [4]: 1.6; MR 86002 [4]: 1.6; MR 87665 [4]: 3.1; Mr 88493 [4]: 3.1; SA 29213 [5]: 6.2; CPEK (50 μM) [6]: 6.0
105 (KWCFRVCYRGICYRRCRN; Artificial Antimicrobial peptide) [compound 105]	3.1	97.9	1.6	1.6	1.6	1.6	1.6	0.8	1.6	1.6	1.6	3.1	1.6	1.6	1.6	1.6	1.6	1.6	0.8	1.6	MR 81926 [4]: 1.6; MR 86002 [4]: 1.6; MR 87665 [4]: 1.6; Mr 88493 [4]: 3.1; SA 29213 [5]: 6.2; CPEK (50 μM) [6]: 8.6
106 (KWCWRVCYRGICYRRCRD; Artificial Antimicrobial peptide) [compound 106]	3.1	101.5	1.6	1.6	1.6	1.6	1.6	0.8	1.6	1.6	1.6	1.6	1.6	1.6	1.6	3.1	1.6	1.6	0.8	1.6	MR 81926 [4]: 1.6; MR 86002 [4]: 1.6; MR 87665 [4]: 1.6; Mr 88493 [4]: 3.1; SA 29213 [5]: 3.1; CPEK (50 μM) [6]: 25.2
107 (KWCFRVCWRGICYRRCRD; Artificial Antimicrobial peptide) [compound 107]	3.1	101.8	1.6	1.6	1.6	1.6	1.6	1.6	1.6	1.6	1.6	1.6	1.6	1.6	1.6	3.1	1.6	1.6	0.8	1.6	MR 81926 [4]: 1.6; MR 86002 [4]: 1.6; MR 87665 [4]: 1.6; Mr 88493 [4]: 1.6; SA 29213 [5]: 3.1; CPEK (50 μM) [6]: 26.3
108 (KWCFRVCYGGICYRRCRD; Artificial Antimicrobial peptide) [compound 108]	0.8	27.7	3.1	3.1	3.1	3.1	3.1	3.1	3.1	3.1	3.1	3.1	3.1	3.1	3.1	3.1	3.1	3.1	3.1	3.1	MR 81926 [4]: 3.1; MR 86002 [4]: 3.1; MR 87665 [4]: 3.1; Mr 88493 [4]: 3.1; SA 29213 [5]: 12.5; CPEK (50 μM) [6]: 9.6
109 (KWCFRVCYRRICYRRCRD; Artificial Antimicrobial peptide) [compound 109]	1.6	99.8	1.6	1.6	1.6	1.6	1.6	1.6	1.6	1.6	1.6	1.6	1.6	1.6	1.6	1.6	1.6	1.6	0.8	1.6	MR 81926 [4]: 1.6; MR 86002 [4]: 1.6; MR 87665 [4]: 1.6; Mr 88493 [4]: 1.6; SA 29213 [5]: 3.1; CPEK (50 μM) [6]: 19.2
110 (KWCFRVCYRGYCYRRCRD; Artificial Antimicrobial peptide) [compound 110]	1.6	46.3	3.1	1.6	3.1	3.1	1.6	1.6	1.6	3.1	3.1	3.1	3.1	3.1	3.1	3.1	3.1	3.1	1.6	1.6	MR 81926 [4]: 3.1; MR 86002 [4]: 3.1; MR 87665 [4]: 3.1; Mr 88493 [4]: 3.1; SA 29213 [5]: 6.2; CPEK (50 μM) [6]: 10.7
112 (KWCFRVCYRGICYRRCKD; Artificial Antimicrobial peptide) [compound 112]	1.6	61.0	1.6	1.6	1.6	1.6	1.6	0.8	1.6	1.6	1.6	1.6	1.6	1.6	1.6	1.6	1.6	1.6	0.8	0.8	MR 81926 [4]: 1.6; MR 86002 [4]: 1.6; MR 87665 [4]: 1.6; Mr 88493 [4]: 1.6; SA 29213 [5]: 3.1; CPEK (50 μM) [6]: 14.2
